Where two headings read alike, the source gives them in different places.
Key:
[1] = target: kainate receptor GluK2 (Rattus norvegicus, UniProt P42260); assay: Two-electrode voltage clamp of kainate receptor in Xenopus laevis oocytes; assay type: cell-based; details: 100 µM CDC; after block of desensitization with ConA; n = 3
Text: (§1) The resulting EC50 or IC50 values were averaged.

[2] = target: AMPA receptor GluA1/GluA2 (Rattus norvegicus, UniProt P19490+P19491); assay: Two-electrode voltage clamp of AMPA receptor in Xenopus laevis oocytes; assay type: cell-based; details: 100 µM CDC; n = 6
AMPA receptor GluA1/GluA2, sequence (P19490 19-907): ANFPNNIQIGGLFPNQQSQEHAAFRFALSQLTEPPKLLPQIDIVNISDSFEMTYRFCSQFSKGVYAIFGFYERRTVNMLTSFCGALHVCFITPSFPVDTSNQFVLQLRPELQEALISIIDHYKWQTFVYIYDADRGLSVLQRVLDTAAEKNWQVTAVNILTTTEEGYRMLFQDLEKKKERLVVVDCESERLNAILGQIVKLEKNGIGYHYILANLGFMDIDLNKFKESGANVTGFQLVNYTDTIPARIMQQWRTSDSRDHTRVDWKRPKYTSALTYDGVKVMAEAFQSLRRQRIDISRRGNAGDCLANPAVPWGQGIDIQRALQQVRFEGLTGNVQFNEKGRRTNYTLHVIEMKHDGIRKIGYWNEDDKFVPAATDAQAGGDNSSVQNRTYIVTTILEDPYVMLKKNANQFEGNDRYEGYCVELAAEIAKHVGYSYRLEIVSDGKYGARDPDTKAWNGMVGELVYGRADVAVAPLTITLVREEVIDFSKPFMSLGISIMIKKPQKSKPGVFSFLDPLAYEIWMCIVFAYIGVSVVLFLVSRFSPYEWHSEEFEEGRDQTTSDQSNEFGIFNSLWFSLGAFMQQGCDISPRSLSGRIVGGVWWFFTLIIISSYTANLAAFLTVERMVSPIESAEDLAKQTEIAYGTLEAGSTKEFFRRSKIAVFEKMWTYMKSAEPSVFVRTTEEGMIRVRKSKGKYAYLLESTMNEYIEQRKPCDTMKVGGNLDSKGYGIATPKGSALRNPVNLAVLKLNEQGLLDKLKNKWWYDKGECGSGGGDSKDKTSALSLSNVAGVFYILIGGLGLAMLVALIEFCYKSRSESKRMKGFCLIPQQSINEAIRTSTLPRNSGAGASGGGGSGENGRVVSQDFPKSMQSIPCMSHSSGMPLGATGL
AMPA receptor GluA1/GluA2, sequence (P19491 22-883): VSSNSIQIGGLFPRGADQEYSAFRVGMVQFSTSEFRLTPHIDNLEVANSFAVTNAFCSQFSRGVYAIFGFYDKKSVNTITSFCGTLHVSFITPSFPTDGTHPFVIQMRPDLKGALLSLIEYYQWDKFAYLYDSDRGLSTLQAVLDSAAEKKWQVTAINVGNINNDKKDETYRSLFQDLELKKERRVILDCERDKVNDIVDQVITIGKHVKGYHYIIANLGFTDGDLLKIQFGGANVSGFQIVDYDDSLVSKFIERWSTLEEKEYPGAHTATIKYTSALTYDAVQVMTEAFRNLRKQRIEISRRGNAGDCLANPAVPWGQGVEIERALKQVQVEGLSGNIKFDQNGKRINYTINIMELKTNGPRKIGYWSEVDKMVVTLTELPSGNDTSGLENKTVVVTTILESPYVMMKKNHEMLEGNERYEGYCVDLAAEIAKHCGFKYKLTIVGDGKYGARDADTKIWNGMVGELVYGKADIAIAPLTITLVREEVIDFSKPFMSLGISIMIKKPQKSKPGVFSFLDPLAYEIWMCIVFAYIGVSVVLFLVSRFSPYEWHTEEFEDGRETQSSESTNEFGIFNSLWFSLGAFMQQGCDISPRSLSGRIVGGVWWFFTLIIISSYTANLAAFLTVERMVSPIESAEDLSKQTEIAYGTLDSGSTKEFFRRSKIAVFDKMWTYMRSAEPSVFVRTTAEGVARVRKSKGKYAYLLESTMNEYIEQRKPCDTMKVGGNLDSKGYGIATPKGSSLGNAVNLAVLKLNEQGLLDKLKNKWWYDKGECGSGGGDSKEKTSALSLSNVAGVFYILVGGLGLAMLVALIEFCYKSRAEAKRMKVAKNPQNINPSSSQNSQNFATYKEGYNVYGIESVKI
Text: as §1

[3] = target: GluN3B Ser701 to Ala (Mus musculus, UniProt Q91ZU9, S701A); assay: Two-electrode voltage clamp of GluN3B point mutant Ser701 to Ala in oocytes; assay type: cell-based; details: for Increase in block for the mutant compared with wild type: 100 µM bile salt, n = 11–13
GluN3B Ser701 to Ala, sequence (Q91ZU9 25-1003 S701A, other chains not shown): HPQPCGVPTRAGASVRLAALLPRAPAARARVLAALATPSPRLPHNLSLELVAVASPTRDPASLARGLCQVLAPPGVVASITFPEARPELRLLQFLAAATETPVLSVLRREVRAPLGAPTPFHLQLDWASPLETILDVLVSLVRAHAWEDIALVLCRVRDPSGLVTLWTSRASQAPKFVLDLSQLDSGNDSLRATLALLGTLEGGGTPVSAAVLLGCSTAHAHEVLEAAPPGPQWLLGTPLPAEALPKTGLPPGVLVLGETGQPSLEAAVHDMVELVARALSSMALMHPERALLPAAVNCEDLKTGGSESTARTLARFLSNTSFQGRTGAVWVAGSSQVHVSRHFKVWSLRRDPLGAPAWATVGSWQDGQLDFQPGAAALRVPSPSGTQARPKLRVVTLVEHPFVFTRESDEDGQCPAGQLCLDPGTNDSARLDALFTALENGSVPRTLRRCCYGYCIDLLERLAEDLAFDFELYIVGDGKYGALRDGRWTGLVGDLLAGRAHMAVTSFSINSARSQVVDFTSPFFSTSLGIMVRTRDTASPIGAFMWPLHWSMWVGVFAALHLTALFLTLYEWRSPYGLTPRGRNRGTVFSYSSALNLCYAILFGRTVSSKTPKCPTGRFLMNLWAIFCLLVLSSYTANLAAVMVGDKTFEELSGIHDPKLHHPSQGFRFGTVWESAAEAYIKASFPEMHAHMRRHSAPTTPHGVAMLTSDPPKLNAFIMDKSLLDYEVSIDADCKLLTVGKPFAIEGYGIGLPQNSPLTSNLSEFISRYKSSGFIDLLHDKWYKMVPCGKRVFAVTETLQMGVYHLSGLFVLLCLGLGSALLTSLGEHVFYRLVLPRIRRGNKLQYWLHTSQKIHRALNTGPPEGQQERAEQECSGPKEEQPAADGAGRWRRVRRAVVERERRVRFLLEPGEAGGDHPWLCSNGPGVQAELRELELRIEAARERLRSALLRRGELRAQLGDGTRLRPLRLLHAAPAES
Text: as §1

[4] = target: GluN1/GluN2D receptors (Rattus norvegicus, UniProt P35439+Q62645); assay: Two-electrode voltage clamp of recombinant NMDARs in Xenopus laevis oocytes (GluN2D); details: for IC50: read-out: IC50 Tauro-CDC
GluN1/GluN2D receptors, sequence (Q62645 28-1323, other chains not shown): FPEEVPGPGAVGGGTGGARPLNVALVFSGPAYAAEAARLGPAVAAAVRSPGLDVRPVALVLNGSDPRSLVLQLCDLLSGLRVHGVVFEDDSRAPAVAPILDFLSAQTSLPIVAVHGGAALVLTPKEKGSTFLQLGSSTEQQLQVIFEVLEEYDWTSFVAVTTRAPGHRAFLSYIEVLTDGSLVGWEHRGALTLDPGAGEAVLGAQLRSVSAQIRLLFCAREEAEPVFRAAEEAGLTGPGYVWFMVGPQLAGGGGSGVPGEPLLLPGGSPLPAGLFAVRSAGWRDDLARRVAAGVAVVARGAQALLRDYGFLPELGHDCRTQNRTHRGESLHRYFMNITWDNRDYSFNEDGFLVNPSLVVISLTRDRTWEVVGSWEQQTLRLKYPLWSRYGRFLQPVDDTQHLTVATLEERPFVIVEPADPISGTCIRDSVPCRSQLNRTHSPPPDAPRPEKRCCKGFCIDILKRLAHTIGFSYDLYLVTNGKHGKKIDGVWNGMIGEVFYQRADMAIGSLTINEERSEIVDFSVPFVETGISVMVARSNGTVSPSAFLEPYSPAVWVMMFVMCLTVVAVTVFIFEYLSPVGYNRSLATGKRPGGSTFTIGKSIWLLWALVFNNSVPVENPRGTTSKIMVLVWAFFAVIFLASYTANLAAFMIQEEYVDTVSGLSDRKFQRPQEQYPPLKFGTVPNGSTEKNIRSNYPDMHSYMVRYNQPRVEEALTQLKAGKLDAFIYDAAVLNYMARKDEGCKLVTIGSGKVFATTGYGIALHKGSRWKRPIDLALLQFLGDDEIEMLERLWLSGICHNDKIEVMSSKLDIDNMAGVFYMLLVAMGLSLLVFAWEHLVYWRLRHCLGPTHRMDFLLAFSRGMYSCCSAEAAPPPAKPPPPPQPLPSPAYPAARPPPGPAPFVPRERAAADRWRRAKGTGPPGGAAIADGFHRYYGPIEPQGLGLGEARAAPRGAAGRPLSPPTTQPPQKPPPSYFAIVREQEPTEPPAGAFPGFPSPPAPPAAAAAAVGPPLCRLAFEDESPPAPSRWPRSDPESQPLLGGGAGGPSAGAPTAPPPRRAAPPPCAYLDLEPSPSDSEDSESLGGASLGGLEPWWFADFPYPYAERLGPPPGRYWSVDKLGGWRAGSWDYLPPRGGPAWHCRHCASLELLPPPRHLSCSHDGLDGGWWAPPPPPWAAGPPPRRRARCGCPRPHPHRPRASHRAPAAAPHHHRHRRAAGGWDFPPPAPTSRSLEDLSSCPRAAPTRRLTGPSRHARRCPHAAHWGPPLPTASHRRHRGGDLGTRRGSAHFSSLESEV
Text: (§2) The cDNAs coding for NMDA and kainate receptors, subcloned into pSGEM for expression in Xenopus laevis oocytes, were kindly provided by Michael Hollmann (Ruhr University Bochum). AMPA receptor cDNAs were inserted in pGEM-HE for cRNA synthesis. The following cDNAs were used: GluN1-1a (U08261), GluN2A (NM_012573), GluN2B (NM_012574), GluN2D (U08260), GluN3B (NM_130455), GluK2 (NM_019309), GluA1 (NM_031608) and GluA2 (M38061). These cDNAs are from rat except for GluN3B, which is from mouse. Point mutants were generated by polymerase chain reaction (PCR)-directed mutagenesis with specific mismatch primers (biomers.net). cRNA was synthesized from 1 µg of linearized plasmid DNA using an in vitro transcription kit (mMESSAGE mMACHINE® T7 Transcription Kit, Thermo Fisher Scientific).
(§3) Oocytes were obtained from parts of the ovaries surgically removed from Xenopus laevis in accordance with German law and approved by the local authorities of the Heinrich Heine University of Düsseldorf. Lumps of around 20 oocytes were incubated with 10 mg/ml collagenase type 2 (Worthington Biochemical Corporation) for 1–1.5 h in Ca^2+-free Barth’s solution (in mM: 88 NaCl, 1 KCl, 2.4 NaHCO3, 0.82 MgSO4, 20 HEPES, pH adjusted to 7.5 with NaOH) with slow agitation to remove the follicular cell layer and then washed extensively with Barth’s solution containing Ca^2+ (in mM: 88 NaCl, 1 KCl, 2.4 NaHCO3, 0.82 MgSO4, 0.41 CaCl2, 0.33 Ca(NO3)2, 20 HEPES, pH adjusted to 7.5 with NaOH) to inactivate the collagenase. Oocytes were maintained in Barth’s solution charged with antibiotic and antimycotic solution (containing penicillin, streptomycin and amphotericin B, Sigma-Aldrich) at 18 °C. Alternatively, Xenopus laevis oocytes were purchased from EcoCyte Bioscience (Castrop-Rauxel, Germany). Within 24 h after surgery, oocytes of stages V-VI were injected with 3.8 ng GluN1 and 5 ng GluN2A or GluN2B cRNAs, 7.6 ng GluN1 and 10 ng GluN2D cRNA or 7.6 ng GluN1 and 6.4 ng GluN3B-cRNA per oocyte (molecular GluN1 to GluN2 ratio: 1:1; GluN1 to GluN3 ratio: 1:1) using a Micro4 nanoliter injector (World Precision Instruments, Sarasota, FL, USA).
(§4) Two-electrode voltage clamp recordings of oocyte current responses were performed 3–5 days after cRNA injection at −70 mV holding potential with a Turbo Tec-03X amplifier (npi electronic, Germany) controlled by Pulse software (HEKA, Germany). Electrodes were filled with 3 M KCl and had resistances of 0.5–1.5 MΩ. […] Agonists and bile salts were applied for 20–40 s by superfusion. Agonist and bile salt blocker potencies were determined by recording current responses induced by the application of increasing agonist concentrations or increasing bile salt concentration to the same oocyte. Agonist-induced currents were normalized to the maximum response under saturating agonist concentration. In case of inhibition by bile salts the relative reduction in agonist-induced current was determined. Data from each oocyte was fitted separately to the Hill equation using Origin 9 software. The resulting EC50 or IC50 values were averaged. Current-voltage relationships were determined by ramping the holding potential from −140 mV to +50 mV corrected for background conductivities. Data are reported as mean ± standard error of the mean (SEM). Statistical significance was determined using the unpaired, two-tailed Student’s t-test.

[5] = target: GluN3B Tyr505 to Ala (Mus musculus, UniProt Q91ZU9, Y505A); details: n = 9
GluN3B Tyr505 to Ala, sequence (Q91ZU9 25-1003 Y505A, other chains not shown): as the sequence (Q91ZU9 25-1003 S701A, other chains not shown) above, with Y481A, A677S counted along it
Method: AMPA receptor cDNAs were inserted in pGEM-HE for cRNA synthesis. The following cDNAs were used: GluN1-1a (U08261), GluN2A (NM_012573), GluN2B (NM_012574), GluN2D (U08260), GluN3B (NM_130455), GluK2 (NM_019309), GluA1 (NM_031608) and GluA2 (M38061). These cDNAs are from rat except for GluN3B, which is from mouse. Point mutants were generated by polymerase chain reaction (PCR)-directed mutagenesis with specific mismatch primers (biomers.net). cRNA was synthesized from 1 µg of linearized plasmid DNA using an in vitro transcription kit (mMESSAGE mMACHINE® T7 Transcription Kit, Thermo Fisher Scientific). […]
Two-electrode voltage clamp recordings of oocyte current responses were performed 3–5 days after cRNA injection at −70 mV holding potential with a Turbo Tec-03X amplifier (npi electronic, Germany) controlled by Pulse software (HEKA, Germany). […] Agonist and bile salt blocker potencies were determined by recording current responses induced by the application of increasing agonist concentrations or increasing bile salt concentration to the same oocyte. […] In case of inhibition by bile salts the relative reduction in agonist-induced current was determined. […] Current-voltage relationships were determined by ramping the holding potential from −140 mV to +50 mV corrected for background conductivities. […] Statistical significance was determined using the unpaired, two-tailed Student’s t-test.

[6] = target: GluN1/GluN3B receptors (Mus musculus, UniProt Q91ZU9); assay: Two-electrode voltage clamp of recombinant NMDARs in Xenopus laevis oocytes (GluN3B); details: for maximum block by tauro-CDC / IC50: n = 6; for IC50: read-out: mean IC50 for tauro-CDC
GluN1/GluN3B receptors, sequence (Q91ZU9 25-1003, other chains not shown): as the sequence (Q91ZU9 25-1003 S701A, other chains not shown) above, with A677S counted along it
Text: as §2, §3, §4

[7] = system: NMDAR; set-up: method as in PMID 1372086; details: read-out: reported EC50; cited from earlier work
[8] = system: uninjected oocytes; assay: Agonist application to uninjected oocytes; assay type: cell-based, Xenopus laevis; details: n = 3
Text: as §1

kainate receptor GluK2, sequence (P42260 32-908): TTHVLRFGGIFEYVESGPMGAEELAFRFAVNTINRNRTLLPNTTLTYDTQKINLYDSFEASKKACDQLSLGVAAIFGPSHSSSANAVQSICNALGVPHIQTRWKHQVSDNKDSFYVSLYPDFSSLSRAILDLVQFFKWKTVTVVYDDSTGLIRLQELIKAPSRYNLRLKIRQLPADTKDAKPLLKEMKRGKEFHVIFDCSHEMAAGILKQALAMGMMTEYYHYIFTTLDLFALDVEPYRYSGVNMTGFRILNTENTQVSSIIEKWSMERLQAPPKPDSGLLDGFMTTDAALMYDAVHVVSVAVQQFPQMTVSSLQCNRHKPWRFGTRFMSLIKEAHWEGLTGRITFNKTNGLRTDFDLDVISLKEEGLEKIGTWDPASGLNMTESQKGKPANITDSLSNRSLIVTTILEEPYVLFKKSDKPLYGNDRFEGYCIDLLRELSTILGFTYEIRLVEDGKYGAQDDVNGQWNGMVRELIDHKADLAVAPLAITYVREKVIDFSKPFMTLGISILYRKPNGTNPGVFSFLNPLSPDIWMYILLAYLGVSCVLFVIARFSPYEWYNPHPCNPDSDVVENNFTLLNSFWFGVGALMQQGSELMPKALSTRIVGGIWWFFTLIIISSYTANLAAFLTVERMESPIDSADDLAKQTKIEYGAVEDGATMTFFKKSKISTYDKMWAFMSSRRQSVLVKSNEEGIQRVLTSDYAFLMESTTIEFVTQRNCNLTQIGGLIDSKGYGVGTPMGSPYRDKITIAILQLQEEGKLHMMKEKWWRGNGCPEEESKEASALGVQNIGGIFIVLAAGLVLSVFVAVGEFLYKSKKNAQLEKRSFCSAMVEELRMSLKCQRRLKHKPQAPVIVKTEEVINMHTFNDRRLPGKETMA

In the case of `C[C@H](CCC(=O)O)[C@H]1CC[C@H]2[C@@H]3[C@H](O)C[C@@H]4C[C@H](O)CC[C@]4(C)[C@H]3CC[C@]12C` [CDC, chenodeoxycholate], the “Inhibition of glutamate-induced steady-state GluK2 current” value [1] is reported as “no inhibition”, the “Reduction of GluA1/GluA2 currents” value [2] is reported as 7 ± 1% and the “Increase in block for the mutant compared with wild type” value [3] is reported as 15%.
For `N[C@@H](CCC(=O)O)C(=O)O` [Glu, glutamate], the “max. Glu-induced current [normalized]” value ([4]; 10 µM Gly) was 1.00 ± 0.17 (7) and the “max. Glu-induced current [normalized]” value ([4]; 10 µM Gly + 180 µM Tauro-CDC) was 0.25 ± 0.06 (7).
With `NCC(=O)O` [Gly, glycine] the glycine-induced currents ([3]; Ser701 to Ala mutant, n = 29) was 106 ± 12 nA, the “Activation of mutant receptor by agonist” value [5] was “could not be activated” and the glycine-induced currents ([6]; wild type, n = 30) was 835 ± 85 nA.
For `N[C@@H](CCS(=O)(=O)O)C(=O)O` [L-HCA, L-homocysteic acid], the EC50 [7] is listed as 13 µM and the “Activation of GluN3B by agonist” value ([6]; concentrations of up to 1 mM, n = 4) is listed as “could not be activated”.
For `O=C(O)c1cccnc1C(=O)O` [QN, quinolinic acid], the “Effect on uninjected oocytes” value [8] is given as “no effect” and the EC50 [7] is given as 7200 µM.
In the case of `C[C@H](CCC(=O)NCCS(=O)(=O)O)[C@H]1CC[C@H]2[C@@H]3[C@H](O)C[C@@H]4C[C@H](O)CC[C@]4(C)[C@H]3CC[C@]12C` [Tauro-CDC], the “Increase in block for the mutant compared with wild type” value [3] is reported as 15%, the “max. block by Tauro-CDC” value ([4]; 10 µM Gly, 0.51 µM Glu) is reported as 100 ± 4 (11) % and the “max. block by Tauro-CDC” value ([4]; 10 µM Gly, 150 µM Glu) is reported as 87 ± 3 (13) %. The “Block of L-HCA-induced GluN2D currents” value ([4]; 100 µM tauro-CDC, L-HCA 13 µM, 10 µM glycine co-agonist, n = 12) was 30 ± 2%, the “Inhibition of QN-induced GluN2D currents” value ([4]; 100 µM tauro-CDC, QN 1 mM, 10 µM glycine co-agonist, n = 7) was 29 ± 2% and the “Reduction of QN-induced GluN2D currents” value ([4]; 100 µM tauro-CDC, QN 7.2 mM, 10 µM glycine co-agonist, n = 7) was 26 ± 2%. For the same compound, the “Effect in the absence of NMDAR agonists (partial agonist action)” value ([4]; 100 µM tauro-CDC, n = 4) was “no effects”, the “Effect on I/V relationship and reversal potential of agonist-induced currents” value ([4]; 100 µM tauro-CDC, n = 10–11) was “did neither change the shape of I/V relationships nor did it shift the reversal potentials” and the “max. block by Tauro-CDC” value ([4]; […] Gly, 150 µM Glu) was 98 ± 3 (8) %. It also gave an IC50 ([4]; 10 µM Gly, 0.51 µM Glu) of 137 ± 8 µM, an IC50 ([4]; 10 µM Gly, 150 µM Glu (saturating agonist concentration)) of 179 ± 11 µM and an IC50 ([4]; […] Gly, 150 µM Glu) of 153 ± 8 µM. For the same compound, the “maximum block by tauro-CDC” value ([6]; 5 μM glycine) was 92 ± 3%, the “maximum block by tauro-CDC” value ([6]; 10 μM glycine) was 95 ± 3% and the “Effect in the absence of NMDAR agonists (partial agonist action)” value ([6]; 100 µM tauro-CDC, n = 4) was “no effects”. The “Effect on I/V relationship and reversal potential of agonist-induced currents” value ([6]; 100 µM tauro-CDC, n = 10–11) was “did neither change the shape of I/V relationships nor did it shift the reversal potentials”, the IC50 ([6]; in the presence of 5 μM glycine) was 44 ± 7 µM and the IC50 ([6]; in the presence of 10 μM glycine) was 83 ± 8 µM. For the same compound, the “Reduction of QN-induced GluN3B currents” value ([6]; tauro-CDC 100 µM, QN 7.2 mM, n = 5) was “about 68 ± 4%”.

Reference: PMC6624251, “Isoform-specific Inhibition of N-methyl-D-aspartate Receptors by Bile Salts” (Scientific Reports, 2019)
